Here are results for one compound from publication PMC3976407, “Inhibition of Fatty Acid Binding Proteins Elevates Brain Anandamide Levels and Produces Analgesia” (PLoS ONE, 2014).

The structures appear in SMILES notation. Like-named read-outs stand apart in the source and are kept apart here. Bounds are passed on as bounds.

For one series, the system named is CB1. Set-up: method as in PMID 23236415. To be noted: previously demonstrated ref 31; cited from earlier work.
Series [1] in a line: Pharmacokinetics: SBFI26 levels in plasma and brain. The format is in vivo. Conditions: mouse, 20 mg/kg, i.p.; for half-life: ip. The method, then:
Mice were injected with SBFI26 (20 mg/kg, i.p.) and were subsequently rapidly euthanized by decapitation at the indicated time points. The brain was rapidly removed and submerged in liquid nitrogen while the blood was collected into a K2-EDTA collection tube (Fisher). Plasma was isolated by centrifugation of the blood and 50 μl of the plasma was combined with 150 μl acetonitrile and centrifuged to remove the resulting protein pellet. Subsequently, 50 μl of water was added to 50 μl of the supernatant and 10 μl was injected for analysis into a Thermo TSQ Quantum Access Triple Quadrupole mass spectrometer (ThermoFisher). LC separation was achieved on a Luna C18 (150×2 mm) column. Mobile phase A consisted of 100% H20 while mobile phase B was composed of 100% acetonitrile. The flow rate was 200 μl/min. A linear gradient was used and started at 50% B for 2 min, then ramped to 100% B in 8 min., with a 2 min hold at 100% B. The system was then equilibrated at 50% B for a cycle time of 20 min. The mass spectrometer was operated in the negative ion mode with the high voltage set at −3.5 kV. The sheath pressure was 20 and the capillary was set to 270 °C. Multiple reaction monitoring (MRM) was used with the transition m/z 421 to 277 at 29 eV as the quantitation channel, while m/z 421 to 205 at 17 eV was employed as a conformation channel. SBFI26 quantification was performed using an external calibration curve.

For another series, the target named is FABP7 (Homo sapiens, UniProt O15540). Nature of the series: NBD-stearate fluorescence displacement binding.
FABP7, sequence (O15540 whole entry, species assumed): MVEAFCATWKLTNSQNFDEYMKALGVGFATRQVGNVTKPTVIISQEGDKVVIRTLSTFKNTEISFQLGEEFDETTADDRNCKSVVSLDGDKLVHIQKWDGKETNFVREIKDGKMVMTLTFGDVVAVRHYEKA
Series [2] has as its system carrageenan-induced thermal hyperalgesia and paw edema in mice. Put plainly: Carrageenan-induced paw edema and thermal hyperalgesia. Conditions: 20 mg/kg, i.p. It counts as in vivo, mouse. The method, then: Paw edema was induced by injecting 1% λ-carrageenan (20 μl, in sterile saline) into the plantar surface of the left hind paw using a 30 gauge needle attached to a glass syringe (Hamilton Company). Paw diameters were measured before carrageenan injection and 4 or 24 hours after injection using digital electronic calipers (Fisher) and expressed to the nearest ± 0.01 mm. SBFI26, SBFI50, SBFI60, and SBFI62 were dissolved in DMSO:cremophor-EL:saline (4% DMSO:10% Cremophor-EL) and administered (20 mg/kg, i.p.) 60 min prior to injection of carrageenan. Receptor antagonists were injected 10 min before the inhibitors. Rimonabant and SR144528 (3 mg/kg, i.p.) were dissolved in ethanol:cremophor-EL:saline (1∶1∶18) while GW6471 (4 mg/kg, i.p.) was dissolved in DMSO:cremophor-EL:saline (2% DMSO:5% Cremophor-EL). Edema is reported as the change in paw diameter at 24 hr compared to the baseline. Thermal hyperalgesia was measured using the Hargreaves plantar apparatus (Ugo Basile) as previously reported.
In general terms: The carrageenan paw model is a standard test of acute inflammation.

In a further series the test system is HeLa cells. Put plainly: Cytotoxicity, MTT colorimetric assay. The format is cell-based. Conditions: 24 hr incubation, n = 3. The procedure:
Cytotoxicity of the FABP inhibitors SBFI26 and BMS309403 were examined using the MTT [3-(4,5-dimethylthiazol-2-yl)-2,5 diphenyl tetrazolium bromide] colorimetric assay. HeLa cells were seeded into 96-well plates (15,000 cells/well) and incubated for 24 hours at 37°C in DMEM supplemented with 10% FBS, penicillin (100 U/mL) and streptomycin (100 μg/mL). The cells were subsequently washed with PBS and treated with serum-free DMEM containing 10 nM to 1 mM SBFI26, BMS309403, or 5 mM hydrogen peroxide as a positive control. Following a 24 hr incubation, the cells were washed with PBS and treated with MTT (0.5 mg/mL in PBS) for 4 hrs. The cells were subsequently solubilized using DMSO and the absorbance was read at 562 nm in a microplate reader.
For orientation: Tetrazolium dyes change colour on reduction, which living cells bring about.

In series [3] the test system is locomotor activity in mice. Nature of the series: Locomotor activity. It counts as in vivo, mouse. To be noted: 20 mg/kg, i.p., measured 90 min after administration. The procedure:
[…] Locomotor activity was recorded for 5 min by a video camera suspended above the chamber and subsequently scored by an observer blinded to the treatment conditions. A grid crossing was scored when both hind legs of the animal crossed the border of each grid square.

The test system of series [4] is brain endocannabinoid levels. Put plainly: Lipid quantification of brain NAEs and 2-AG. The format is in vivo. To be noted: mouse, 20 mg/kg, i.p. The method, then: Quantification of endogenous NAEs and 2-AG were performed as previously described with minor modifications. Mice were rapidly euthanized by decapitation and their brains flash frozen in liquid nitrogen. The brains were subsequently thawed, weighed, and homogenized in 8 ml of 2∶1∶1 CHCl3:MeOH:Tris (50 mM, pH 8) in the presence of 4 ng d4-PEA, 4 ng d2-OEA, 400 pg d4-AEA, and 40 ng d5-2-AG. Following centrifugation at 4°C, the organic layer was removed and brought up to 8 ml with the same buffer and centrifuged again. The resulting organic layer was dried down with argon and resuspended with 100 μl of 2∶1 CHCl3:MeOH and 10 μl was injected into the Thermo TSQ Quantum Access Triple Quadropole mass spectrometer. LC separation was achieved on a Gemini C18 (50×2 mm×5 μm) equipped with a Gemini C18 SecurityGuard precolumn (4 mm length ×2 mm internal diameter). Mobile phase A consisted of 95∶5% v:v H20:MeOH while mobile phase B was composed of 60∶35∶5 v:v:v i-PrOH:MeOH:H2O and quantification was performed in the positive ion mode with the voltage set at 4 kV. 0.1% formic acid was added to assist in ionization. The sheath pressure was 30 and the capillary was set at 270 °C. The flow rate was 100 μl/min. The gradient started at 0% B and increased to 100% B over 15 min followed by an isocratic gradient of 100% B for 10 min, and was equilibrated for 15 min at 0% B.

Experimental for FABP7: Inhibitory constant (Ki) values were elucidated utilizing NBD-stearate fluorescence displacement as described previously [9], [31]. The tests were performed in 96-well plates containing inhibitors (0.1 – 50.0 μM), FABP, and NBD-stearate. Fluorescence intensity was measured with a FLUOstar OPTIMA spectrofluorometer with excitation and emission wavelengths of 460 and 544 nm, respectively.

`O=C(O)C1C(c2ccccc2)C(C(=O)Oc2cccc3ccccc23)C1c1ccccc1` (stereo not drawn) [SBFI26, alpha-2,4-diphenylcyclobutane-1,3-dicarboxylic acid mono-1-naphthyl ester]: in the series on CB1, the “Activation of CB1” value was “does not activate”. Moreover, the half-life – broadly, how long it takes for the measured level to halve – in series [1] (brain, read-out: Brain half-life (converted)) is roughly 3 h. In series [1], the “Brain levels relative to plasma levels” value is given as “lower”. The “Time of peak brain level” value in series [1] (brain) is listed as “within one hour”. In series [1] (plasma), the “Time of peak plasma level” value is “within one hour”. For the same compound, in series [1] (plasma and brain), the “Time by which levels return to baseline” value is no more than 24 h. Further, the half-life in series [1] (plasma, read-out: Plasma half-life (converted)) was roughly 3 h. For the same compound, the Ki – broadly, a dissociation constant, usually derived from enzyme kinetics or from competition with a known ligand – on FABP7 is 0.4 µM. Besides, in series [2], the “Effect upon carrageenan-induced paw edema” value is “reduced” and the “Effect upon carrageenan-induced thermal hyperalgesia” value is “reduced”. For the same compound, in the series on HeLa cells, the “Cytotoxicity _50 values” amounted to 31.1 ± 4.1 µM. Besides, in series [3], the Locomotor activity entry is listed as “does not alter”. Besides, in series [4] (90 min), the “Brain 2-AG levels” value is listed as “unaffected”, the “Brain OEA levels” value is on record as “unaffected” and the “Brain PEA levels” value is reported as “unaffected”. Also, the “Brain AEA levels” value in series [4] (tissues harvested 90 min after administration) was “significantly elevated”.
